Assay results as given in US6362172B1, “Water soluble prodrugs of azole compounds” (Bristol-Myers Squibb Company, priority 2000, dated 2002).
Converted amounts (≈) assume the structure as drawn.

Assays:
[1] = conversion of prodrug to parent drug in vivo
aqueous solubility = conditions: for solubility: aqueous; for solubility and stability of the crystalline salt: single polymorph crystalline solids

Compound	conversion to parent drug in vivo [1]	stability in solution (stability in solution)	solubility (aqueous solubility; pH 4.3, aqueous buffer)	solubility (aqueous solubility; pH 7, aqueous buffer)	solubility and stability of the crystalline salt (aqueous solubility)
C[C@@H](c1nc(-c2ccc(C#N)cc2)cs1)C(Cn1cncn1)(OCOP(=O)(O)O)c1ccc(F)cc1F (stereo partly drawn) [Example 2, (2R,3R)-3-[4-(4-cyanophenyl)thiazol-2-yl]-2-(2,4-difluorophenyl)-1-(1H-1,2,4,- triazol-1-yl)-2-[(dihydrogenphosphonoxy)methoxy]butane]	readily converted to parent drug in vivo	stable in solution	5000 to 6000 µg/mL (≈ 9.13 to 11 mM)	> 10000 µg/mL	–
C[C@@H](c1nc(-c2ccc(C#N)cc2)cs1)[C@@](Cn1cncn1)(OCOP(=O)(O)O)c1ccc(F)cc1F.NCCCC[C@H](N)C(=O)O.NCCCC[C@H](N)C(=O)O [Example 3, Bis lysine salt of (2R,3R)-3-[4-(4-cyanophenyl)thiazol-2-yl]-2-(2,4-difluorophenyl)-1-(1H-1,2,4-triazol-1-yl)-2-[(dihydrogenphosphonoxy)methoxy]butane]	–	–	–	–	good solubility and stability
CC(C)(C)N.C[C@@H](c1nc(-c2ccc(C#N)cc2)cs1)[C@@](Cn1cncn1)(OCOP(=O)(O)O)c1ccc(F)cc1F [Example 4, Tert-butyl amine salt of (2R,3R)-3-[4-(4-cyanophenyl)thiazol-2-yl]-2-(2,4-difluorophenyl)-1-(1H-1,2,4-triazol-1-yl)-2-[(dihydrogenphosphonoxy)methoxy]butane]	–	–	–	–	good solubility and stability
